In the NIST ThermoML archive (doi:10.1016/j.jct.2016.03.026):

Assay: xn = mol fraction of the nth substance listed
Conditions: 313.15 K, Fluid (supercritical or subcritical phases), x1 = 0.97; for mass density: Vibrating tube method; for speed of sound: Frequency=5 MHz, Pulse-echo method

O=C=O [carbon dioxide] + CO
Conditions	mass density [kg/m3]	speed of sound [m/s]
17250 kPa	821	–
17275 kPa	821.23	–
17300 kPa	821.48	–
17325 kPa	821.73	–
17350 kPa	821.98	–
17375 kPa	822.18	–
17400 kPa	822.42	–
17425 kPa	822.65	–
17450 kPa	822.87	–
17475 kPa	823.11	–
17500 kPa	823.28	–
17525 kPa	823.52	–
17550 kPa	823.71	–
17575 kPa	823.99	–
17600 kPa	824.21	–
17625 kPa	824.46	–
17650 kPa	824.71	–
17675 kPa	824.95	–
17700 kPa	825.17	–
17725 kPa	825.45	–
17750 kPa	825.67	–
17775 kPa	825.94	–
17800 kPa	826.17	–
17825 kPa	826.41	–
17850 kPa	826.64	–
17875 kPa	826.87	–
17900 kPa	827.14	–
17925 kPa	827.38	–
17950 kPa	827.61	–
17975 kPa	827.85	–
18000 kPa	828.1	–
18025 kPa	828.35	–
18050 kPa	828.6	–
18075 kPa	828.84	–
18100 kPa	829.11	–
18125 kPa	829.36	–
18150 kPa	829.59	–
18175 kPa	829.87	–
18200 kPa	830.13	–
18225 kPa	830.35	–
18250 kPa	830.62	–
18275 kPa	830.86	–
18300 kPa	831.12	–
18325 kPa	831.37	–
18350 kPa	831.62	–
18375 kPa	831.85	–
18400 kPa	832.11	–
18425 kPa	832.31	–
18450 kPa	832.53	–
18475 kPa	832.8	–
18500 kPa	833.03	–
18525 kPa	833.28	–
18550 kPa	833.5	–
18575 kPa	833.75	–
18600 kPa	833.97	–
18625 kPa	834.2	–
18650 kPa	834.43	–
18675 kPa	834.69	–
18700 kPa	834.94	–
18725 kPa	835.15	–
18750 kPa	835.38	–
18775 kPa	835.62	–
18800 kPa	835.84	–
18825 kPa	836.06	–
18850 kPa	836.28	–
18875 kPa	836.55	–
18900 kPa	836.78	–
18925 kPa	837.02	–
18950 kPa	837.22	–
18975 kPa	837.47	–
19000 kPa	837.72	–
19025 kPa	837.93	–
19050 kPa	838.15	–
19075 kPa	838.38	–
19100 kPa	838.61	–
19125 kPa	838.87	–
19150 kPa	839.12	–
19175 kPa	839.32	–
19200 kPa	839.61	–
19225 kPa	839.82	–
19250 kPa	840.03	–
19275 kPa	840.27	–
19300 kPa	840.49	–
19325 kPa	840.71	–
19350 kPa	840.94	–
19375 kPa	841.18	–
19400 kPa	841.4	–
19425 kPa	841.61	–
19450 kPa	841.84	–
19475 kPa	842.08	–
19500 kPa	842.31	–
19525 kPa	842.53	–
19550 kPa	842.75	–
19575 kPa	842.96	–
19600 kPa	843.19	–
19625 kPa	843.37	–
19650 kPa	843.59	–
19675 kPa	843.84	–
19700 kPa	844.02	–
19725 kPa	844.25	–
19750 kPa	844.43	–
19775 kPa	844.64	–
19800 kPa	844.89	–
19825 kPa	845.06	–
19850 kPa	845.27	–
19875 kPa	845.47	–
19900 kPa	845.69	–
19925 kPa	845.91	–
19950 kPa	846.1	–
19975 kPa	846.29	–
20000 kPa	846.53	–
31890 kPa	–	648.6
34940 kPa	–	674.9
39990 kPa	–	714.5
44940 kPa	–	749.7
49940 kPa	–	782
54960 kPa	–	812.2
60140 kPa	–	841.3
65170 kPa	–	867.7
70010 kPa	–	891.8
75170 kPa	–	916.2
80060 kPa	–	938.2
